Among the data in PubChem BioAssay (NCI) are TGI and GI50 values, retold here.

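In this assay, cells in 96-well plates receive the compound at five concentrations for 48 hours. Endpoints are linearly interpolated between the surrounding concentrations. Abbreviation: GI50, concentration required for 50% inhibition of growth. At the TGI there is no net growth.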

Among the test systems are NCI-H522 lung; SNB-75 CNS; SNB-19 CNS; UO-31 renal; CAKI-1 renal; A498 renal; PC-3 prostate; HOP-92 NSCLC.
Test in all cases: inhibition of tumour cell growth, NCI panel, 48 h

On to `CN(C)C=Nc1c2c(nc3ccccc13)CCCC2`, for which the TGI in the experiment on NCI-H522 lung, with SNB-75 CNS, in the experiment on SNB-19 CNS, in the experiment with UO-31 renal, in the experiment on CAKI-1 renal and in the experiment on A498 renal was over 100 µM throughout. In addition, the TGI with PC-3 prostate and in the experiment on HOP-92 NSCLC was over 100 µM in each case.

On to `COc1ccc(C=NCCCN=Cc2ccc(OC)cc2O)c(O)c1`, for which the TGI is over 100 µM with NCI-H522 lung; 64.8 µM in the experiment with SNB-75 CNS; over 100 µM in the experiment on SNB-19 CNS; over 100 µM in the experiment on UO-31 renal; over 100 µM in the experiment with A498 renal; over 100 µM in the experiment with PC-3 prostate. The same compound returned a TGI with HOP-92 NSCLC of 68.8 µM.

Consider `Nc1nc(N)c2nc(CNc3ccc(C(=O)NC(CCNC(=O)c4ccccc4C(=O)O)C(=O)O)cc3)cnc2n1` (stereo unspecified), for which the TGI in the experiment on NCI-H522 lung, in the experiment on SNB-75 CNS, with SNB-19 CNS, with UO-31 renal, in the experiment with CAKI-1 renal and in the experiment with A498 renal was over 100 µM each time. The TGI in the experiment on PC-3 prostate and with HOP-92 NSCLC was over 100 µM throughout. The GI50 in the experiment with UO-31 renal is 0.04 µM; in the experiment on CAKI-1 renal it was 0.0666 µM; in the experiment with PC-3 prostate it was 0.00666 µM; in the experiment with HOP-92 NSCLC it was over 100 µM.

As for `COC(=O)CN(CC1O[C@@H]2OC(C)(C)O[C@@H]2C1NC(C)=O)C(=O)OCc1ccccc1` (stereo partly specified), the TGI with NCI-H522 lung, with SNB-75 CNS, in the experiment with SNB-19 CNS, in the experiment on UO-31 renal, in the experiment with CAKI-1 renal and with A498 renal was over 100 µM each time. The TGI in the experiment on PC-3 prostate and in the experiment on HOP-92 NSCLC was over 100 µM throughout.

In the case of `CC1(C)OC2OC(C(=O)c3ccccc3)C3OC(C)(C)OC3C2O1` (stereo unspecified), the TGI in the experiment with NCI-H522 lung, in the experiment on SNB-75 CNS, with SNB-19 CNS, in the experiment on UO-31 renal, with CAKI-1 renal and in the experiment with A498 renal was over 100 µM throughout. Besides, the TGI with PC-3 prostate and with HOP-92 NSCLC was over 100 µM each time.

Turning to `O=C1c2ccccc2C(=O)c2c(NCC3CO3)cccc21` (stereo unspecified), the TGI in the experiment with NCI-H522 lung was over 100 µM; in the experiment with SNB-75 CNS, over 100 µM; in the experiment on SNB-19 CNS it was over 100 µM; in the experiment with UO-31 renal, 22.5 µM; in the experiment with CAKI-1 renal it was 77.3 µM; in the experiment on A498 renal, over 100 µM. Besides, the TGI in the experiment with PC-3 prostate is over 57 µM; with HOP-92 NSCLC, over 100 µM.

Take `Cc1ccc(S(=O)(=O)NCCCSCCO)cc1`: the TGI with NCI-H522 lung, in the experiment with SNB-75 CNS, in the experiment with SNB-19 CNS, in the experiment with UO-31 renal, in the experiment on A498 renal and in the experiment on PC-3 prostate was over 100 µM each time. The same compound gave a TGI in the experiment on HOP-92 NSCLC of over 100 µM.

For the compound `COc1ccccc1[C@@H]1CCC2CC[C@@H](c3ccccc3OC)[N+]21Cc1ccccc1` (stereo partly specified), the TGI in the experiment on NCI-H522 lung was 11.5 µM; in the experiment with SNB-75 CNS it was 8.65 µM; in the experiment with SNB-19 CNS it was 16.5 µM; in the experiment on UO-31 renal, 10.6 µM; in the experiment on CAKI-1 renal, 18.8 µM; in the experiment with A498 renal, 7.66 µM. The TGI is 7.94 µM in the experiment with PC-3 prostate and 4.06 µM with HOP-92 NSCLC.

Regarding `Cc1sc2nc3n(c(=O)c2c1C)N=C(c1ccccc1)CS3`, the TGI with NCI-H522 lung, in the experiment on SNB-75 CNS, in the experiment on UO-31 renal, in the experiment with CAKI-1 renal, in the experiment on A498 renal and in the experiment with PC-3 prostate was over 100 µM each time. Besides, the TGI in the experiment with HOP-92 NSCLC was over 100 µM.

In the case of `Cc1cc2c(cc1-c1cc3c(cc1C)C(C(C)C)=C(O)C(=O)/C3=C\Nc1ccccn1)/C(=C/Nc1ccccn1)C(=O)C(O)=C2C(C)C`, the TGI in the experiment on NCI-H522 lung is 74.8 µM; in the experiment with SNB-75 CNS it was over 100 µM; in the experiment on SNB-19 CNS, over 100 µM; in the experiment with CAKI-1 renal, over 100 µM; in the experiment with A498 renal, over 100 µM; in the experiment with PC-3 prostate, over 100 µM. The TGI in the experiment with HOP-92 NSCLC was over 100 µM.

On to `O=C(NCCC1CN(S(=O)(=O)C(F)(F)F)c2ccccc21)OCc1ccccc1` (stereo unspecified), for which the TGI in the experiment with NCI-H522 lung, with SNB-19 CNS, with UO-31 renal, in the experiment on CAKI-1 renal, in the experiment on A498 renal and with PC-3 prostate was over 100 µM throughout. Besides, the TGI in the experiment with HOP-92 NSCLC is over 100 µM.

In the case of `CCN(CCN(CC)C(=O)NC)C(=O)NC`, the TGI with NCI-H522 lung, with SNB-75 CNS, with SNB-19 CNS, with UO-31 renal, in the experiment on A498 renal and in the experiment on PC-3 prostate was over 100 µM each time. Also, the TGI in the experiment on HOP-92 NSCLC was over 100 µM.

For the compound `COc1cc2nc3n(c(=O)c2cc1OC)CCCCC3`, the TGI in the experiment on NCI-H522 lung, in the experiment with SNB-75 CNS, in the experiment with UO-31 renal, with CAKI-1 renal, with A498 renal and in the experiment with PC-3 prostate was over 100 µM throughout. The TGI in the experiment with HOP-92 NSCLC was over 100 µM.
